Assay results reported in patent US9302999B2, “Substituted triazoles as herbicides” (E. I. DU PONT DE NEMOURS AND COMPANY, priority 2012, dated 2016).
Where two headings read alike, the source gives them in different places.

Legend:
Assay type in all cases: in vivo
[1] = system: corn (Zea mays); assay: Test A pre-/postemergence: corn; settings: Zea mays, 240 h
Outline: (§1)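 Each species received preemergence soil-directed spraying and, at the same time, postemergence treatment of seedlings 2–10 cm tall. Formulation: non-phytotoxic solvent mixture including surfactant. Response assessed visually about ten days on, relative to untreated controls, 0–100 scale.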

[2] = system: winter wheat (Triticum aestivum); assay: Test C pre-/postemergence: winter wheat
Outline: (§2)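 Visual injury scored 0–100 (100 = complete control) against untreated controls after 13–15 greenhouse days. Surfactant-containing solvent formulations applied either to soil after sowing (loam/sand) or over 1- to 4-leaf plants, 2–18 cm tall.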

[3] = system: ryegrass, Italian (Italian ryegrass, Lolium multiflorum); assay: Test C pre-/postemergence: ryegrass, Italian
Outline: as §2

[4] = system: pigweed (Amaranthus retroflexus); assay: Test A pre-/postemergence: pigweed; settings: Amaranthus retroflexus, 240 h; for pest or weed control at 125 g/ha: 125 g ai/ha; for pest or weed control at 500 g/ha: 500 g ai/ha
Outline: as §1

[5] = system: barnyardgrass (Echinochloa crus-galli); assay: Test A pre-/postemergence: barnyardgrass; settings: Echinochloa crus-galli, 240 h; for pest or weed control at 125 g/ha: 125 g ai/ha; for pest or weed control at 500 g/ha: 500 g ai/ha
Outline: as §1

[6] = system: morningglory (Ipomoea spp.); assay: Test A pre-/postemergence: morningglory; settings: Ipomoea, 240 h; for pest or weed control at 125 g/ha: 125 g ai/ha; for pest or weed control at 500 g/ha: 500 g ai/ha
Outline: as §1

[7] = system: foxtail, giant (giant foxtail, Setaria faberii); assay: Test C pre-/postemergence: foxtail, giant
Outline: as §2

[8] = system: nutsedge, yellow (yellow nutsedge, Cyperus esculentus); assay: Test C pre-/postemergence: nutsedge, yellow
Outline: as §2

[9] = system: blackgrass (Alopecurus myosuroides); assay: Test C pre-/postemergence: blackgrass
Outline: as §2

[10] = system: morningglory (Ipomoea coccinea); assay: Test C pre-/postemergence: morningglory
Outline: as §2

[11] = system: wheat (Triticum aestivum); assay: Test A pre-/postemergence: wheat; settings: Triticum aestivum, 240 h; for plant injury at 125 g/ha: 125 g ai/ha; for plant injury at 500 g/ha: 500 g ai/ha
Outline: as §1

[12] = Postemergence, 31 g ai/ha, scale 0 to 100 (0 no effect, 100 complete control)
[13] = Postemergence, 62 g ai/ha, scale 0 to 100 (0 no effect, 100 complete control)
[14] = Postemergence, 125 g ai/ha, scale 0 to 100, 0 no effect, 100 complete control
[15] = Postemergence, 250 g ai/ha, scale 0 to 100
[16] = Preemergence, 31 g ai/ha, scale of 0 to 100, 0 is no effect, 100 is complete control
[17] = Preemergence, 62 g ai/ha, scale of 0 to 100, 0 is no effect, 100 is complete control
[18] = Preemergence, 125 g ai/ha, scale 0 to 100, 0 no effect, 100 complete control
[19] = Preemergence, 250 g ai/ha, scale 0 to 100, 0 no effect, 100 complete control

Cc1nn(-c2ccc(F)cc2)nc1Oc1ccnc(C(F)(F)F)c1 [Compound 129, 4-[[2-(4-fluorophenyl)-5-methyl-2H-1,2,3-triazol-4-yl]oxy]-2-(trifluoromethyl)pyridine]
plant injury at 125 g/ha ([1]; post-emergence, Postemergence, 125 g ai/ha, 0 to 100 scale, 0 is no effect, 100 is complete control, read-out: Corn plant response rating): 30% | plant injury at 500 g/ha ([1]; post-emergence, Postemergence, 500 g ai/ha, visual rating on 0 to 100 scale (0 no effect, 100 complete control), approximately ten days, read-out: Corn plant response rating): 40% | Corn plant response rating (crop injury, 0 = no effect, 100 = complete kill) at 125 g/ha ([1]; pre-emergence, Preemergence, 125 g ai/ha, 0 to 100 scale where 0 is no effect and 100 is complete control): 50% | Corn plant response rating (crop injury, 0 = no effect, 100 = complete kill) at 500 g/ha ([1]; pre-emergence, Preemergence, 500 g ai/ha, 0 to 100 scale (0 no effect, 100 complete control)): 60% | Plant response rating, Wheat [2, 12]: 20 | Plant response rating, Wheat [2, 13]: 25 | Plant response rating, Wheat [2, 14]: 30 | Plant response rating, Wheat [2, 15]: 40 | Plant response rating, Wheat [2, 16]: 0 | Plant response rating, Wheat [2, 17]: 20 | Plant response rating, Wheat [2, 18]: 30 | Plant response rating, Wheat [2, 19]: 60 | Plant response rating, Ryegrass, Italian [3, 12]: 5 | Plant response rating, Ryegrass, Italian [3, 13]: 15 | Plant response rating, Ryegrass, Italian [3, 14]: 30 | Plant response rating, Ryegrass, Italian [3, 15]: 60 | Plant response rating, Ryegrass, Italian [3, 16]: 60 | Plant response rating, Ryegrass, Italian [3, 17]: 90 | Plant response rating, Ryegrass, Italian [3, 18]: 90 | Plant response rating, Ryegrass, Italian [3, 19]: 95 | pest or weed control at 125 g/ha ([4]; post-emergence, Postemergence, 0 to 100 scale, 0 is no effect, 100 is complete control, read-out: Pigweed plant response rating): 100% | pest or weed control at 500 g/ha ([4]; post-emergence, Postemergence, visual rating on 0 to 100 scale (0 no effect, 100 complete control), approximately ten days, read-out: Pigweed plant response rating): 100% | pest or weed control at 125 g/ha ([4]; pre-emergence, Preemergence, 0 to 100 scale where 0 is no effect and 100 is complete control, read-out: Plant response rating, Pigweed): 100% | pest or weed control at 500 g/ha ([4]; pre-emergence, Preemergence, 0 to 100 scale (0 no effect, 100 complete control), read-out: Plant response rating, Pigweed): 100% | pest or weed control at 125 g/ha ([5]; post-emergence, Postemergence, 0 to 100 scale, 0 is no effect, 100 is complete control, read-out: Barnyardgrass plant response rating): 90% | pest or weed control at 500 g/ha ([5]; post-emergence, Postemergence, visual rating on 0 to 100 scale (0 no effect, 100 complete control), approximately ten days, read-out: Barnyardgrass plant response rating): 90% | pest or weed control at 125 g/ha ([5]; pre-emergence, Preemergence, 0 to 100 scale where 0 is no effect and 100 is complete control, read-out: Plant response rating, Barnyardgrass): 100% | pest or weed control at 500 g/ha ([5]; pre-emergence, Preemergence, 0 to 100 scale (0 no effect, 100 complete control), read-out: Plant response rating, Barnyardgrass): 100% | pest or weed control at 125 g/ha ([6]; post-emergence, Postemergence, 0 to 100 scale, 0 is no effect, 100 is complete control, read-out: Morningglory plant response rating): 100% | pest or weed control at 500 g/ha ([6]; post-emergence, Postemergence, visual rating on 0 to 100 scale (0 no effect, 100 complete control), approximately ten days, read-out: Morningglory plant response rating): 100% | pest or weed control at 125 g/ha ([6]; pre-emergence, Preemergence, 0 to 100 scale where 0 is no effect and 100 is complete control, read-out: Plant response rating, Morningglory): 50% | pest or weed control at 500 g/ha ([6]; pre-emergence, Preemergence, 0 to 100 scale (0 no effect, 100 complete control), read-out: Plant response rating, Morningglory): 60% | Plant response rating, Foxtail, Giant [7, 12]: 0 | Plant response rating, Foxtail, Giant [7, 13]: 20 | Plant response rating, Foxtail, Giant [7, 14]: 30 | Plant response rating, Foxtail, Giant [7, 15]: 65 | Plant response rating, Foxtail, Giant [7, 16]: 95 | Plant response rating, Foxtail, Giant [7, 17]: 98 | Plant response rating, Foxtail, Giant [7, 18]: 98 | Plant response rating, Foxtail, Giant [7, 19]: 98 | Plant response rating, Nutsedge, Yellow [8, 12]: 0 | Plant response rating, Nutsedge, Yellow [8, 13]: 0 | Plant response rating, Nutsedge, Yellow [8, 14]: 0 | Plant response rating, Nutsedge, Yellow [8, 15]: 0 | Plant response rating, Nutsedge, Yellow [8, 16]: 0 | Plant response rating, Nutsedge, Yellow [8, 17]: 0 | Plant response rating, Nutsedge, Yellow [8, 18]: 0 | Plant response rating, Nutsedge, Yellow [8, 19]: 5 | Plant response rating, Blackgrass [9, 12]: 40 | Plant response rating, Blackgrass [9, 13]: 60 | Plant response rating, Blackgrass [9, 14]: 70 | Plant response rating, Blackgrass [9, 15]: 80 | Plant response rating, Blackgrass [9, 16]: 90 | Plant response rating, Blackgrass ([9]; Preemergence, 62 g ai/ha, scale 0 to 100, 0 no effect, 100 complete control): 90 | Plant response rating, Blackgrass [9, 18]: 90 | Plant response rating, Blackgrass [9, 19]: 90 | Plant response rating, Morningglory [10, 12]: 50 | Plant response rating, Morningglory [10, 13]: 55 | Plant response rating, Morningglory [10, 14]: 65 | Plant response rating, Morningglory [10, 15]: 75 | Plant response rating, Morningglory [10, 16]: 0 | Plant response rating, Morningglory [10, 17]: 20 | Plant response rating, Morningglory [10, 18]: 60 | Plant response rating, Morningglory [10, 19]: 65 | plant injury at 125 g/ha ([11]; post-emergence, Postemergence, 0 to 100 scale, 0 is no effect, 100 is complete control, read-out: Wheat plant response rating): 20% | plant injury at 500 g/ha ([11]; post-emergence, Postemergence, visual rating on 0 to 100 scale (0 no effect, 100 complete control), approximately ten days, read-out: Wheat plant response rating): 30% | plant injury at 125 g/ha ([11]; pre-emergence, Preemergence, 0 to 100 scale where 0 is no effect and 100 is complete control, read-out: Plant response rating, Wheat): 10% | plant injury at 500 g/ha ([11]; pre-emergence, Preemergence, 0 to 100 scale (0 no effect, 100 complete control), read-out: Plant response rating, Wheat): 50%
